Test results reported in ChEMBL document CHEMBL1201862, “PubChem BioAssay data set” (2004).
Each block holds one compound with its values, some of them ahead of it. Calls of active or inactive are those of the source.

Columns and labels:
Type in all cases: functional
[1] = target: Serine/threonine-protein kinase TAO1 (Homo sapiens, UniProt Q7L7X3)
[2] = target: Proto-oncogene tyrosine-protein kinase receptor Ret (Homo sapiens, UniProt P07949);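 also: measured within a kinome-wide profiling panel, RET as the panel member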
[3] = target: Dual specificity mitogen-activated protein kinase kinase 2 (Homo sapiens, UniProt P36507); assay: Navigating the Kinome. Panel member name: MAP2K2
[4] = target: Leukocyte tyrosine kinase receptor (Homo sapiens, UniProt P29376); assay: Navigating the Kinome. Panel member name: LTK
[5] = target: Vascular endothelial growth factor receptor 2 (Homo sapiens, UniProt P35968)
Vascular endothelial growth factor receptor 2, sequence (P35968 whole entry): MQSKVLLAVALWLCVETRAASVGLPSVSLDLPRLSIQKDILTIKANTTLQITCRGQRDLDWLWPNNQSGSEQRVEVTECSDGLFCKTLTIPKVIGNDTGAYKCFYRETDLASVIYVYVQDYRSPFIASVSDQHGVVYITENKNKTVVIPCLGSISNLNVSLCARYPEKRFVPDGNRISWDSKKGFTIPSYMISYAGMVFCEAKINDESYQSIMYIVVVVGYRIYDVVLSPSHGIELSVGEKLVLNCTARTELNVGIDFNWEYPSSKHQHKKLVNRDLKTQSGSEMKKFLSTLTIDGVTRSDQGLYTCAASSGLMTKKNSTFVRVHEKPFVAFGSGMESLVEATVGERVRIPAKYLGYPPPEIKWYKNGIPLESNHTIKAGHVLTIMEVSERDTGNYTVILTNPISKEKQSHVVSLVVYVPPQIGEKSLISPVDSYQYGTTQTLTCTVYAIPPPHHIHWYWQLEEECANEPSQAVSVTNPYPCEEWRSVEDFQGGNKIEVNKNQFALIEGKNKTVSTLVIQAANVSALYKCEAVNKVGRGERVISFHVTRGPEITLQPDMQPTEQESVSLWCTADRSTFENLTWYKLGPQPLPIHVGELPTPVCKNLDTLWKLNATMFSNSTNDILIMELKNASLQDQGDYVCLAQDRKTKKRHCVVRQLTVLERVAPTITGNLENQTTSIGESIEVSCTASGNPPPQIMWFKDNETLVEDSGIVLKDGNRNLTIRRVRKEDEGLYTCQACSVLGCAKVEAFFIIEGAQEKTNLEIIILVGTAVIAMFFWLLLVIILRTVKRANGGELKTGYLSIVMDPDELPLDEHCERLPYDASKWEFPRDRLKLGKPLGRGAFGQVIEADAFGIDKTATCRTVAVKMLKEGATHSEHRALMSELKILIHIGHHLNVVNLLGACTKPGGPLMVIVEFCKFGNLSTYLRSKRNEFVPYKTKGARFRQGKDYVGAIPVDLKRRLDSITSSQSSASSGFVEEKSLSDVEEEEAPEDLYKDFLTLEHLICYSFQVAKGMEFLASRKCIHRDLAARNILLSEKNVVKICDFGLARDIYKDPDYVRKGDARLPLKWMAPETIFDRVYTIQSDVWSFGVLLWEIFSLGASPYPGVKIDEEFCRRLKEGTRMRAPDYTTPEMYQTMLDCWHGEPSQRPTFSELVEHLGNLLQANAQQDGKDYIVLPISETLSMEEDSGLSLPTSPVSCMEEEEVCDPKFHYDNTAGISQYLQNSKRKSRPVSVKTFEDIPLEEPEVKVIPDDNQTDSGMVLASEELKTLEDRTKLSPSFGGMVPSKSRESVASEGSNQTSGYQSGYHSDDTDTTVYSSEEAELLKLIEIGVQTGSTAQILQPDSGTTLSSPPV

[6] = target: Death-associated protein kinase 3 (Homo sapiens, UniProt O43293);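 also: measured as one member of a kinome-wide profiling panel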
[7] = target: Calcium/calmodulin-dependent protein kinase type II subunit alpha (Homo sapiens, UniProt Q9UQM7); assay: Navigating the Kinome. Panel member name: CAMK2A
[8] = target: Tyrosine-protein kinase JAK2 (Homo sapiens, UniProt O60674);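 also: JAK2 tested as one member of a kinase panel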
[9] = target: Cyclin-dependent kinase 8 (Homo sapiens, UniProt P49336); assay: Navigating the Kinome. Panel member name: CDK8
Cyclin-dependent kinase 8, sequence (P49336 whole entry): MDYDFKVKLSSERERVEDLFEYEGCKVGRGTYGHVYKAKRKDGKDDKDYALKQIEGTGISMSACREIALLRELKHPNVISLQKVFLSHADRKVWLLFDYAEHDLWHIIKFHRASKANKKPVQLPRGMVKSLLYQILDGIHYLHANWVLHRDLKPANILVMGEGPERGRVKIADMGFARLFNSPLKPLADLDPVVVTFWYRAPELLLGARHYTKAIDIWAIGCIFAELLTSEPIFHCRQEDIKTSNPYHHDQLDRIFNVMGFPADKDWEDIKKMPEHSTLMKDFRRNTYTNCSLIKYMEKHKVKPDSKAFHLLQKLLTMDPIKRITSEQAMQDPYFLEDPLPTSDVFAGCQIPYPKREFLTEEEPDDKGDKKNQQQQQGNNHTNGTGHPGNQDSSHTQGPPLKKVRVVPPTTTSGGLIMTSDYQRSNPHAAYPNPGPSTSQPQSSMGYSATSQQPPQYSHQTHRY

[10] = target: Glycogen synthase kinase-3 alpha (Homo sapiens, UniProt P49840);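 also: GSK3A result taken from a broad kinome-wide kinase panel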
[11] = target: cAMP-dependent protein kinase catalytic subunit alpha (Homo sapiens, UniProt P17612)
[12] = target: Casein kinase I isoform alpha (Homo sapiens, UniProt P48729)
[13] = target: Tyrosine-protein kinase Fyn (Homo sapiens, UniProt P06241)
[14] = target: Mitogen-activated protein kinase kinase kinase kinase 5 (Homo sapiens, UniProt Q9Y4K4);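 also: measured as one member of a kinome-spanning kinase panel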
[15] = target: 5'-AMP-activated protein kinase catalytic subunit alpha-1 (Homo sapiens, UniProt Q13131)
[16] = target: ALK tyrosine kinase receptor (Homo sapiens, UniProt Q9UM73);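 also: ALK tested as one member of a kinase panel screen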
ALK tyrosine kinase receptor, sequence (Q9UM73 whole entry): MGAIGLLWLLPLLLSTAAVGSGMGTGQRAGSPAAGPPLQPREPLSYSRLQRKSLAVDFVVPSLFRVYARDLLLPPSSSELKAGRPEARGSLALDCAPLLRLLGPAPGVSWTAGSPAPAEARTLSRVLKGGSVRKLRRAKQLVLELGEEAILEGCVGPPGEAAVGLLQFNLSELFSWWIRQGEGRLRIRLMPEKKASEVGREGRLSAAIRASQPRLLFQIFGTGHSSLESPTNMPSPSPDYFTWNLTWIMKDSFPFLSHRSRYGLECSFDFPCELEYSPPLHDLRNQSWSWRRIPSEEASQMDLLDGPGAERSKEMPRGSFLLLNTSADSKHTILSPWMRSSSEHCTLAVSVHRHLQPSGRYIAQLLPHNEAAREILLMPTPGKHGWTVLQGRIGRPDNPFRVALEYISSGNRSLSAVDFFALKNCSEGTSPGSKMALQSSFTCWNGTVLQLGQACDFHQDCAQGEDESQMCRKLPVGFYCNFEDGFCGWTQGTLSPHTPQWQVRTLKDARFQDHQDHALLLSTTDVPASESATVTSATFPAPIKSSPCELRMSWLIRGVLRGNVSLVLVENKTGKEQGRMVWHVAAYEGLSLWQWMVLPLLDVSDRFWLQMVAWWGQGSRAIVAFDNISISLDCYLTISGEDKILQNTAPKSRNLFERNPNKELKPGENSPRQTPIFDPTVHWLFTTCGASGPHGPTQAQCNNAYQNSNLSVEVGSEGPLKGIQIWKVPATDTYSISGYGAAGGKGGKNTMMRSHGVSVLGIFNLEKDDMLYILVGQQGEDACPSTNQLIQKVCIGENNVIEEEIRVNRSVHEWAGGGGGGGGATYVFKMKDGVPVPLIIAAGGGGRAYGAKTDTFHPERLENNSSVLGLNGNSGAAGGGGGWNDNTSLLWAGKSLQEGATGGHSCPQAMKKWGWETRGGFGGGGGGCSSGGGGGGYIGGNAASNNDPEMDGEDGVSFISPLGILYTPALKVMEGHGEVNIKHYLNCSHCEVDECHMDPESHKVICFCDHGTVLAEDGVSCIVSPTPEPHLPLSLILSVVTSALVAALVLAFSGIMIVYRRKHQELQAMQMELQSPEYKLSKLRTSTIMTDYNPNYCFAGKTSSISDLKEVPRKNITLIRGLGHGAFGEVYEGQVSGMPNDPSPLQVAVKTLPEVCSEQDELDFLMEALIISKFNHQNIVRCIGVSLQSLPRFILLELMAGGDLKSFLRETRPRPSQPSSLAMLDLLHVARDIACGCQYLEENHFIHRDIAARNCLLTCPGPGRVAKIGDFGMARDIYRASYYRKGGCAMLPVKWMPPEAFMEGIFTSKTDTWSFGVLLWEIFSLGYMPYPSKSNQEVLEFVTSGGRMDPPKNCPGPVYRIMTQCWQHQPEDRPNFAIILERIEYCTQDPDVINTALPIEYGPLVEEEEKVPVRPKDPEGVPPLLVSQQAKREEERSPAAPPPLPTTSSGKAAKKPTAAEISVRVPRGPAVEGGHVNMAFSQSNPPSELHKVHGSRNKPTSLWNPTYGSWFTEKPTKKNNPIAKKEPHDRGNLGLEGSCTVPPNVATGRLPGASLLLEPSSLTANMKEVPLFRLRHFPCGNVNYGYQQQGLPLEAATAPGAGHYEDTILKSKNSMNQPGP

[17] = target: Mitogen-activated protein kinase 9 (Homo sapiens, UniProt P45984);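 also: value from a kinome panel profiling assay, MAPK9 panel entry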
Aurora kinase A = Aurora kinase A (Homo sapiens, UniProt O14965);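 also: value from the Navigating the Kinome kinase panel profiling, panel entry STK6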
Aurora kinase A, sequence (O14965 whole entry): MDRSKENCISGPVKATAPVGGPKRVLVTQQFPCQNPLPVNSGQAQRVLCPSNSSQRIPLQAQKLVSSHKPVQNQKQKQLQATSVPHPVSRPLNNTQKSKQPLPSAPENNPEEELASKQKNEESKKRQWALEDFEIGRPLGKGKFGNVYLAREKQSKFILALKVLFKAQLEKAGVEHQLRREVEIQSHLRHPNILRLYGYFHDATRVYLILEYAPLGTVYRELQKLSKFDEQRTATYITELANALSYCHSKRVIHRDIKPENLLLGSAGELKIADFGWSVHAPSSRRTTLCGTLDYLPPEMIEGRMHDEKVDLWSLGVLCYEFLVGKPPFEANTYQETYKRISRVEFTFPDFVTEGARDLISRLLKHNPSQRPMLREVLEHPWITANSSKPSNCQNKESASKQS

[18] = target: G protein-coupled receptor kinase 5 (Homo sapiens, UniProt P34947); assay: Navigating the Kinome. Panel member name: GPRK5
[19] = target: Ribosomal protein S6 kinase alpha-3 (Homo sapiens, UniProt P51812);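 also: measured within a kinome-wide profiling panel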
[20] = target: Serine/threonine-protein kinase pim-1 (Homo sapiens, UniProt P11309)
[21] = target: Tyrosine-protein kinase JAK3 (Homo sapiens, UniProt P52333)
Tyrosine-protein kinase JAK3, sequence (P52333 whole entry): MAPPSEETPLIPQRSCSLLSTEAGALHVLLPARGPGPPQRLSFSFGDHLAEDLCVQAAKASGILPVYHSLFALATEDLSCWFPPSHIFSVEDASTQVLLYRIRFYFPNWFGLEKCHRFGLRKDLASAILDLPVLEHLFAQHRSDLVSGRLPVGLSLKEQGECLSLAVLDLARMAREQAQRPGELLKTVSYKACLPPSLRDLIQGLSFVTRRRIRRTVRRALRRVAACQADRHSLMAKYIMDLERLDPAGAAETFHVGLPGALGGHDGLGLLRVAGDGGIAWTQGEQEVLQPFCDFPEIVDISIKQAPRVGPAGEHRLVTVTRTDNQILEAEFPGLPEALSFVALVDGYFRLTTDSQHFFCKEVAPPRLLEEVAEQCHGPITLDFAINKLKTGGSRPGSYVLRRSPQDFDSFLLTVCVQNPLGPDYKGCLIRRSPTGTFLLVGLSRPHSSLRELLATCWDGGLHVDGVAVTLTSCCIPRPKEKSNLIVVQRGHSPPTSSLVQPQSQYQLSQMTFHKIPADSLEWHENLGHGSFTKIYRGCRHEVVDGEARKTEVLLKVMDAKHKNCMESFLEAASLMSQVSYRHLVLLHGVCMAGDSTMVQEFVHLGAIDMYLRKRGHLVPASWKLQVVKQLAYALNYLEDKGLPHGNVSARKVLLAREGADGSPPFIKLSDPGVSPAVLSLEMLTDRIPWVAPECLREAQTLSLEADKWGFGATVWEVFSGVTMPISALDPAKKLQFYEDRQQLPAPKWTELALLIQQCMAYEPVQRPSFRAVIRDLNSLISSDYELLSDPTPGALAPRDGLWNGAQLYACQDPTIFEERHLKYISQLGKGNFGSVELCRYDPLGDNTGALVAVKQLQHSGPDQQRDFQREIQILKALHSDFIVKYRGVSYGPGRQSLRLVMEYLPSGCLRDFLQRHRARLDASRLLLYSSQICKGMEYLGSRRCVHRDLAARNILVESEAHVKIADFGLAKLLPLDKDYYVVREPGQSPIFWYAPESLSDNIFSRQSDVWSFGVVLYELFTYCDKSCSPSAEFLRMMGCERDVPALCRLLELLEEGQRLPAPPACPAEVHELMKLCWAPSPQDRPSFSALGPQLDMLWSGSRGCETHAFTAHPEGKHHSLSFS

[22] = target: Mitogen-activated protein kinase kinase kinase kinase 4 (Homo sapiens, UniProt O95819)
[23] = target: Leucine-rich repeat serine/threonine-protein kinase 2 (Homo sapiens, UniProt Q5S007);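 also: value from a broad kinome-wide panel profiling study in which LRRK2 was one of the kinases tested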
[24] = target: Mitogen-activated protein kinase 14 (Homo sapiens, UniProt Q16539);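 also: part of a kinome-wide panel, MAPK14 entry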
[25] = target: Macrophage colony-stimulating factor 1 receptor (Homo sapiens, UniProt P07333);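 also: value comes from the Navigating the Kinome screening panel, CSF1R member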
[26] = target: Cyclin-dependent kinase 19 (Homo sapiens, UniProt Q9BWU1); assay: Navigating the Kinome. Panel member name: CDC2L6
[27] = target: MAP/microtubule affinity-regulating kinase 3 (Homo sapiens, UniProt P27448);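 also: MARK3 affinity measured as one member of a kinome panel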
[28] = target: Tyrosine-protein kinase Lck (Homo sapiens, UniProt P06239);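 also: lck was assayed as one member of a kinase panel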
[29] = target: Tyrosine-protein kinase receptor TYRO3 (Homo sapiens, UniProt Q06418);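 also: TYRO3 value obtained as one member of a kinome-wide profiling panel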
[30] = target: Serine/threonine-protein kinase PAK 4 (Homo sapiens, UniProt O96013);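 also: value obtained within a kinome profiling panel in which PAK4 was one of the panel members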
[31] = target: Inhibitor of nuclear factor kappa-B kinase subunit epsilon (Homo sapiens, UniProt Q14164); assay: Navigating the Kinome. Panel member name: IKBKE
[32] = target: Tyrosine-protein kinase ABL1 (Homo sapiens, UniProt P00519)
[33] = target: cAMP-dependent protein kinase catalytic subunit PRKX (Homo sapiens, UniProt P51817)
[34] = target: Mitogen-activated protein kinase kinase kinase kinase 2 (Homo sapiens, UniProt Q12851);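 also: measured as one member of a kinome-wide kinase panel, with MAP4K2 as the panel entry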
[35] = target: Dual specificity tyrosine-phosphorylation-regulated kinase 1A (Homo sapiens, UniProt Q13627);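 also: measured against DYRK1A as one member of a broad kinome profiling panel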
[36] = target: Serine/threonine-protein kinase TBK1 (Homo sapiens, UniProt Q9UHD2); assay: Navigating the Kinome. Panel member name: TBK1
[37] = target: Dual specificity protein kinase CLK4 (Homo sapiens, UniProt Q9HAZ1)
[38] = target: Fibroblast growth factor receptor 1 (Homo sapiens, UniProt P11362)
[39] = target: Dual specificity mitogen-activated protein kinase kinase 1 (Homo sapiens, UniProt Q02750); assay: Navigating the Kinome. Panel member name: MAP2K1
[40] = target: Glycogen synthase kinase-3 beta (Homo sapiens, UniProt P49841);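 also: value comes from a broad kinome profiling panel, with GSK3B as the panel member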
[41] = target: Insulin-like growth factor 1 receptor (Homo sapiens, UniProt P08069); assay: Navigating the Kinome. Panel member name: IGF1R
[42] = target: Dual specificity protein kinase CLK2 (Homo sapiens, UniProt P49760)
[43] = target: Cyclin-dependent kinase 9 (Homo sapiens, UniProt P50750);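 also: value from the CDK9 entry of a kinome-spanning kinase panel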
[44] = target: Mitogen-activated protein kinase 8 (Homo sapiens, UniProt P45983);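 also: value comes from one member of a kinome-wide kinase profiling panel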
[45] = target: Macrophage-stimulating protein receptor (Homo sapiens, UniProt Q04912); assay: Navigating the Kinome. Panel member name: MST1R
[46] = target: Vascular endothelial growth factor receptor 1 (Homo sapiens, UniProt P17948);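 also: measured within a kinome-wide profiling panel, FLT1 as the panel member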
[47] = target: Receptor-type tyrosine-protein kinase FLT3 (Homo sapiens, UniProt P36888);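 also: FLT3 was tested as one member of a kinome-wide kinase panel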
[48] = target: Platelet-derived growth factor receptor alpha (Homo sapiens, UniProt P16234); assay: Navigating the Kinome. Panel member name: PDGFRA
Focal adhesion kinase 1 = Focal adhesion kinase 1 (Homo sapiens, UniProt Q05397);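 also: measured as one member of a kinome panel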
Aurora kinase B = Aurora kinase B (Homo sapiens, UniProt Q96GD4)

Ki [1]: > 6.31 µM (inactive)
Ki [2]: > 3.16 µM (inactive)
Ki [3]: > 3.98 µM (inactive)
Ki [4]: > 2.51 µM (inactive)
Ki [5]: > 2.51 µM (inactive)
Ki [7]: > 7.94 µM (inactive)
Ki [8]: > 2.51 µM (inactive)
Ki [9]: > 3.98 µM (inactive)
Ki [10]: > 3.98 µM (inactive)
Ki [11]: > 1.26 µM (inactive)
Ki [12]: > 3.98 µM (inactive)
Ki [13]: > 6.31 µM (inactive)
Ki [14]: > 3.98 µM (inactive)
Ki [15]: > 3.16 µM (inactive)
Ki [16]: > 6.31 µM (inactive)
Ki [17]: > 3.98 µM (inactive)
Ki (Aurora kinase A): > 1.58 µM (inactive)
Ki [18]: > 3.98 µM (inactive)
Ki [19]: > 3.98 µM (inactive)
Ki [20]: > 6.31 µM (inactive)
Ki [21]: > 5.01 µM (inactive)
Ki [22]: > 5.01 µM (inactive)
Ki [23]: > 2.51 µM (inactive)
Ki [24]: > 3.98 µM (inactive)
Ki [25]: > 2.51 µM (inactive)
Ki [26]: > 100 µM (inactive)
Ki [27]: > 5.01 µM (inactive)
Ki [28]: > 6.31 µM (inactive)
Ki [29]: > 3.16 µM (inactive)
Ki [30]: 1.58 µM (active)
Ki [31]: > 3.16 µM (inactive)
Ki [32]: > 3.98 µM (inactive)
Ki [33]: 0.00631 µM (active)
Ki [34]: > 2.51 µM (inactive)
Ki [35]: > 2 µM (inactive)
Ki [36]: > 3.16 µM (inactive)
Ki [37]: > 2.51 µM (inactive)
Ki [38]: > 3.98 µM (inactive)
Ki [39]: > 3.16 µM (inactive)
Ki [40]: > 3.98 µM (inactive)
Ki [41]: > 2.51 µM (inactive)
Ki [42]: > 3.98 µM (inactive)
Ki [43]: > 1.58 µM (inactive)
Ki [44]: > 5.01 µM (inactive)
Ki [45]: > 3.98 µM (inactive)
Ki [46]: > 3.98 µM (inactive)
Ki [47]: > 3.16 µM (inactive)
Ki [48]: > 2.51 µM (inactive)
Compound: Cc1cc(O)nc2[nH]nc(-c3cccc(-c4ccc(Cl)cc4)c3)c12
Ki [6]: > 5.01 µM (inactive)

Ki [16]: 0.126 µM (active)
Ki (Aurora kinase A): 0.794 µM (active)
Ki (Focal adhesion kinase 1): > 1.58 µM (inactive)
Ki (Aurora kinase B): 0.1 µM (active)
Compound: Cc1cc(N2CCOCC2)cc2[nH]c(-c3c(NCCc4ccccc4)cc[nH]c3=O)nc12
